Consider two compounds from patent US7022694B2, “Indoles and indolines having 5-HT activity” (Pharmacia & UpJohn Company, priority 2001, dated 2006).

Each structure is given as a SMILES string.

What is called melting point is the temperature of the solid-liquid transition. As for `CN1CCc2ccc3cc[nH]c3c2CC1`, the melting point was 150 to 153 °C. The figure for `c1cnc2c(OCCn3ccc4ccc5c(c43)CCNCC5)cccc2c1` [Example 6, 1-[2-(8-Quinolinyloxy)ethyl]-1,6,7,8,9,10-hexahydroazepino[4,5-g]indole] is 129 to 132 °C.
